Test results taken from ChEMBL document CHEMBL3352758, “Structural Analysis of the Binding of Type I, I1/2, and II Inhibitors to Eph Tyrosine Kinases” (ACS Med Chem Lett, 2015).

Molecular target: T1, Ephrin type-B receptor 4 (Homo sapiens, UniProt P54760)
T1 sequence (P54760 whole entry): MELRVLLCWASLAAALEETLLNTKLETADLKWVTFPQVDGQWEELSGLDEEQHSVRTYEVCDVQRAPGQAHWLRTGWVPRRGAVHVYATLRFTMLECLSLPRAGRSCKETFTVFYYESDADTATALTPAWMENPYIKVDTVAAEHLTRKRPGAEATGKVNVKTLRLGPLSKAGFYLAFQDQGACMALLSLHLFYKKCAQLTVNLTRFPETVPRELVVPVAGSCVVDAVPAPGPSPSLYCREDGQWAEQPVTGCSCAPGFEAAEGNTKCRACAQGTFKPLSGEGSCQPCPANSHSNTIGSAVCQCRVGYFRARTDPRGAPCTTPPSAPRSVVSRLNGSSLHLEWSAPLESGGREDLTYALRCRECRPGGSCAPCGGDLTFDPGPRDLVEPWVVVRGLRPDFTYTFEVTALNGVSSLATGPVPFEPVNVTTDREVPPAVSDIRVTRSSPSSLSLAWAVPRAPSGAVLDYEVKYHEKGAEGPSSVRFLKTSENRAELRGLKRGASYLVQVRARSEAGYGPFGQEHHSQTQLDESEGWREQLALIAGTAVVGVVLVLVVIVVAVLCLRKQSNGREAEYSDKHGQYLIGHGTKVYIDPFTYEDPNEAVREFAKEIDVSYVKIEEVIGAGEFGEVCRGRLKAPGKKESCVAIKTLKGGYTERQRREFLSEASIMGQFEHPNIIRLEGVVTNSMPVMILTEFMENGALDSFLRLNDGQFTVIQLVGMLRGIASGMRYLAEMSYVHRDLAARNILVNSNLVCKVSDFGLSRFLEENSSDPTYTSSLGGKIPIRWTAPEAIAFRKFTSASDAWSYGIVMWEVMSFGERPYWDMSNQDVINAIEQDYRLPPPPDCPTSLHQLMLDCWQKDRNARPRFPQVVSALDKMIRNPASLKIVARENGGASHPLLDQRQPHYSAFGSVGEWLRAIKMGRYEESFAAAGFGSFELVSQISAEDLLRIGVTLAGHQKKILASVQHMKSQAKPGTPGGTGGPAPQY
Test: Inhibition of EphB4 (unknown origin) by FRET-based enzymatic assay in presence of 30 uM ATP; call rule not given here

| IC50 (read-out: IC50) | SMILES | IC50 |
| --- | --- | --- |
| 8 µM | Cc1ccc(-c2csc(NC(=O)CCCC(=O)O)c2C(N)=O)cc1C |  |
|  | Cc1ccc(-n2nc(C(C)(C)C)cc2NC(=O)Nc2ccc(OCCN3CCOCC3)c3ccccc23)cc1 [DORAMAPIMOD] | Not Active |
